Data: patent publication US20230248717A1, “N-(3-HYDROXYPYRIDINE-2-CARBONYL)GLYCINE-BASED ANTITUMOR DRUG SENSITIZER AND APPLICATION THEREOF” (ZHEJIANG UNIVERSITY, priority 2019, published 2023)
Converted amounts (≈) assume the structure as drawn. Read-outs that look alike come from different tables or passages of the source. Blank lines part the entries; values can stand above or below the molecule they belong to.

Experiments:
[1] = system: CT26 mouse colon cancer cells;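 further: MTT read-out taken as absorbance at 562 nm after a 3 h dye incubation, medium-only wells as blank, values averaged over three independent experiments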
Method: (§1) CT26 cells (MC38 cells, 4T1 cells, B16FIO cells, HePa1-6 cells, H22 cells, LLC cells, MB49 cells, P388 cells, C6 cells, BXPC-3 cells, Hela cells, MDA-MB-231 cells, A2780 cells. PC3 cells. HepG2 cells, and HGC-27 cells) were cultured at 5,000 cells/well in a 96-well plate, 100 μL of a medium was added to each well, and the cells were incubated in a 37° C. constant-temperature incubator with 5% CO2 and 95% humidity for 24 h. 100 μL of different concentrations of drugs (DOX: 0.01 μg/mL to 10 μg/mL; PTX: 0.01 μg/mL to 50 μg/mL; Cela: 0.05 μg/mL to 1 μg/mL; sensitizer: 5 μg/mL) were added to each well, while 100 lit of a medium solution was added to the blank group. After culturing for 48 h, centrifugation was conducted at 1,100 rpm for 6 min, the medium in each well was discarded, 100 μL of an 11,11T working solution was added, and the culturing was continued for 3 h. Centrifugation was conducted at 3,300 rpm. for 5 min, the MITT medium in each well was discarded, 100 pt, of the DMSO was added, and the plate was shaken for 5 min to dissolve all crystals in each well. An absorbance of the sample at 562 nm was detected by a microplate reader. Each set of data was an average of three independent experimental results on the same sample.

[2] = system: CT26 mouse colon cancer cells; assay: Cytotoxicity (MTT) in combination with chemotherapeutic drugs;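 further: MTT read-out taken as absorbance at 562 nm after a 3 h dye incubation, medium-only wells as blank, values averaged over three independent experiments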
Method: as §1

[3] = system: Raw264.7 M2 tumor-associated macrophages (TAM2s); assay: Polarization of macrophages from M2 to M1 (PCR); type: cell-based, mouse; settings: IL-4-induced TAM2s, 5 μM, 24 h, vs untreated TAM2s
Method: A mouse macrophage cell line Raw264.7 was inoculated in a 24-well plate. After 12 hours of cell adhesion, the cells were further cultured for one day in a medium containing IL-4 (40 ng/mL) to induce the cells to differentiate into M2 tumor-associated macrophages (TAM2s). DMSO solutions (5 μM) of different groups of the compounds of the present disclosure were added to the TAM2s to treat for 24 h, the cells were collected and lysed, and a total RNA was extracted. The total RNA was subjected to reverse transcription and PCR experiments to detect the RNA levels of an M2 macrophage-specific protein argl and an M1 macrophage-specific protein Nos2 with an hprt gene as an internal reference.

[4] = system: calreticulin in CT26 tumor cells; assay: Drug-induced immunogenic death (calreticulin, confocal); type: cell-based, mouse; settings: doxorubicin-induced CT26 tumor cells, combination with DOX vs DOX alone, 24 h
Method: CT26 cells were plated in confocal culture dishes, and after overnight cell adherence, different drug treatment groups were added, and the incubation was continued for 24 h. The medium was discarded, the cells were rinsed 3 times with PBS, and fixated with 4% paraformaldehyde for 10 min. The cells were rinsed 3 times with PBS for 3 min each time, a 3% BSA solution was added for blocking for 30 min at 37° C., and the blocking solution was removed with absorbent paper. 200 μuL of a calreticulin antibody (FITC-anti-CRT, 1:200) was added to each well and incubated at room temperature for I h in the dark. The cells were rinsed with PBS 3 times for 3 min each time, then a DAPI staining solution was added to each dish and incubated in the dark for 5 min. After washing three times with PBS, the cells were observed under a laser con focal microscope.

[5] = system: PD-L1 expression in CT26 cells; assay: PD-L1 expression in tumor cells by flow cytometry; type: cell-based, mouse; settings: 24 h, blank group 32.7%
Method: CT26 cells were inoculated in a 6-well plate at 2×10^4 cells per well. After the cells adhered. […] The medium was discarded, the cells were rinsed three times with PBS, and 0.2 mL of trypsin containing EDTA was added to each well. The digested cells were collected in a flow tube, and a supernatant was removed by centrifugation. The cells were resuspended in a PBS containing 5% goat serum, and an anti-mouse PD-L1 primary antibody (1 μg/1×10^6 cells) was added, and the cells were incubated at 4° C. for 30 min and washed three times with PBS. An equivalent amount of APC-labeled goat anti-rabbit secondary antibody was added and incubation was continued for 30 min; the cells were washed 3 times with PBS and subjected to flow detection on-machine.

[6] = system: PD-L1 expression in CT26 cells; assay: PD-L1 expression in tumor cells by Western blot; type: cell-based, mouse; settings: 5 μM, 48 h
Method: CT26 cells were inoculated in a 6-well plate at 2×10^4 cells per well and placed in a 37° C. incubator. After the cells adhered, DMSO solutions (5 μM) of compounds 1 to 8 were added separately, and the incubation was continued for 48 h. The medium was discarded, the cells were rinsed three times with pre-cooled PBS, and the washing solution was discarded. 0.2 nrii, of a cell lysis solution containing a protease inhibitor was added to each well and placed on ice to conduct lysis for 30 min.
After the lysis was completed, a lysate and cell debris were scraped to one side of the Petri dish with a cell scraper, the lysate was transferred to a 1.5 mL Ep tube with a pipette, centrifuged at 4° C. (12,000 rpm/5 min), and a supernatant was collected to determine its protein concentration.
The protein sample was diluted with a 1UPAlysis buffer to a certain concentration, 5×SDS loading buffer was added in a protein amount of 1 μg/μL, incubated on a metal bath at 95° C. for 5 min, cooled to room temperature, and the sample was loaded to an SDS-PAGE electrophoresis gel (5% for stacking gel and 12% for resolving gel). Under a voltage of 90 V, the protein was run to the bottom of the stacking gel to form a straight line, then the voltage was adjusted to 125 V, and the electrophoresis was stopped after the bromophenol blue appeared. […]

[7] = system: mRNA expression of PD-L1 in CT26 cells; assay: PD-L1 mRNA expression in tumor cells by qPCR; type: cell-based, mouse; settings: 5 μM, 48 h, GAPDH internal reference
Method: CT26 cells were inoculated in a 6-well plate at 2×10^5 cells per well and placed in a 37° C. incubator. After the cells adhered, DMSO solutions (5 μM) of the compounds of the present disclosure were added separately, and the incubation was continued for 48 h. Total RNA was lysed and extracted, and reverse transcription and PCR experiments were conducted to detect an RNA level of PD-L1 in CT26 cells, using a GAPDH gene as an internal reference.

[8] = system: HIF-1α expression in CT26 cells; assay: HIF-1α expression in tumor cells by flow cytometry; type: cell-based, mouse; settings: 5 μM, 24 h; for expression of HIF-1α in tumor cells: vs blank control
Method: CT26 cells were evenly plated in a 6-well plate at 2×10^4 cells per well. After the cells adhered, DMSO solutions (5 μM) of the different compounds of the present disclosure were added separately, and the incubation was continued for 24 h. The medium was discarded, the cells were rinsed three times with PBS, and 0.2 mL of trypsin containing EDTA was added to each well. The digested cells were collected in a flow tube, and a supernatant was removed by centrifugation; the cells were resuspended in a PBS containing 5% goat serum, and an FITC anti-mouse HIF-1α antibody (1 μg/1×10^6 cells) was added, incubated at 4° C. for 30 min, and washed three times with PBS, and subjected to flow detection on-machine.

[9] = CT26 cell line, chemotherapeutic drug in combination with compound 7 (sensitizer 5 μg/mL), 48 h

- IC50 [1]: 97.4 ± 3.33 mg/L (≈ 179 µM)
SMILES: COc1cccc2c1C(=O)c1c(O)c3c(c(O)c1C2=O)C[C@@](O)(C(=O)CO)C[C@@H]3O[C@H]1C[C@H](N)[C@@H](O)[C@H](C)O1 [Epirubicin]
- IC50, Compound 7+ [2, 9]: 17.125 ± 1.338 mg/L

- IC50 [1]: 68.2 ± 2.29 mg/L (≈ 82.6 µM)
SMILES: CC[C@]1(O)C[C@H]2CN(CCc3c([nH]c4ccccc34)[C@@](C(=O)OC)(c3cc4c(cc3OC)N(C=O)[C@H]3[C@@](O)(C(=O)OC)[C@H](OC(C)=O)[C@]5(CC)C=CCN6CC[C@]43[C@@H]65)C2)C1 [Vincristine]
- IC50, Compound 7+ [2, 9]: 44.312 ± 1.851 mg/L

- IC50 [1]: 2.42 ± 0.197 mg/L (≈ 4.12 µM)
SMILES: CCc1c2c(nc3ccc(OC(=O)N4CCC(N5CCCCC5)CC4)cc13)-c1cc3c(c(=O)n1C2)COC(=O)[C@]3(O)CC [Irinotecan]
- IC50, Compound 7+ [2, 9]: 1.415 ± 0.022 mg/L

SMILES: CC1=C(O)C(=O)C=C2C1=CC=C1[C@@]2(C)CC[C@@]2(C)[C@@H]3C[C@](C)(C(=O)O)CC[C@]3(C)CC[C@]12C [Tripterine]
- IC50, Compound 7+ [2]: 1.592 ± 0.142 mg/L
- IC50, Compound 7− [2]: 5.219 ± 0.242 mg/L

SMILES: Cc1nc(C(=O)NCC(=O)O)c(O)c2ccc(Oc3ccccc3)cc12 [compound 7, N-(4-Hydroxy-1-methyl-7-phenoxyisoquinoline-3-carbonyl)glycine]
- RNA level of M1 macrophage-specific protein Nos2 [3]: significantly increased
- RNA level of M2 macrophage-specific protein argl [3]: significantly decreased
- calreticulin expression (immunogenic death) [4]: express more calreticulin
- PD-L1 expression rate ([5]; 10 μM compound 7 group): 18.8%
- PD-L1 expression rate ([5]; 2.5 compound 7 group): 24%
- PD-L1 expression rate ([5]; 5 1μM compound 7 group): 20.8%
- expression of PD-L1 in tumor cells (Western blot) [6]: best effect
- cell viability, combination with chemotherapeutic drug DOX vs chemotherapeutic drug alone ([2]; CT26 cells, sensitizer 5 μg/mL, 48 h): best effect
- toxicity of doxorubicin (DOX), paclitaxel (PTX), oxaliplatin (OXA) or camptothecin (irinotecan, SN38) on CT26 cells ([2]; combination with compound 7, 48 h): increase the toxicity
- mRNA expression level of PD-L1 [7]: best effect
- reduction of HIF-1α [8]: 45%
- expression of HIF-1α in tumor cells [8]: best effect

SMILES: O=C1c2c(O)ccc(O)c2C(=O)c2c(NCCNCCO)ccc(NCCNCCO)c21 [Mitoxantrone]
- IC50 [1]: 2.12 ± 0.297 mg/L (≈ 4.76 µM)
- IC50, Compound 7+ [2, 9]: 0.815 ± 0.021 mg/L

SMILES: O=C(O)CNC(=O)c1ncc(-c2cccc(Cl)c2)cc1O [compound 6]
- expression of PD-L1 in tumor cells (Western blot) [6]: best effect
- mRNA expression level of PD-L1 [7]: best effect
- expression of HIF-1α in tumor cells [8]: best effect
